Measured values as given in ChEMBL document CHEMBL3351894, “Development and evaluation of ST-1829 based on 5-benzylidene-2-phenylthiazolones as promising agent for anti-leukotriene therapy” (Eur J Med Chem, 2015).
In brackets after ≈: the same amount, converted by molar mass. Activity calls are given as the source filed them. The rule behind the calls is not given here.

Tests used:
[1] = Cytotoxicity against human U937 cells at 100 uM after 48 hrs by LDH assay; assay type: cell-based; settings: u-937, 48 h
[2] = Cytotoxicity against human U937 cells assessed as cell viability at 100 uM after 48 hrs by WST-1 assay; assay type: cell-based, U-937; settings: read-out: Activity
[3] = Solubility of the compound in PBS at pH 7.4 at RT; assay type: physicochemical
[4] = Solubility of the compound in DMSO at RT; assay type: physicochemical
[5] = target: T1, Polyunsaturated fatty acid 5-lipoxygenase (Homo sapiens, UniProt P09917); test: Inhibition of 5-LO in human PMNL using arachidonic acid as substrate assessed as product formation incubated for 15 mins prior to substrate addition measured after 10 mins by HPLC analysis
T1 sequence (P09917 whole entry): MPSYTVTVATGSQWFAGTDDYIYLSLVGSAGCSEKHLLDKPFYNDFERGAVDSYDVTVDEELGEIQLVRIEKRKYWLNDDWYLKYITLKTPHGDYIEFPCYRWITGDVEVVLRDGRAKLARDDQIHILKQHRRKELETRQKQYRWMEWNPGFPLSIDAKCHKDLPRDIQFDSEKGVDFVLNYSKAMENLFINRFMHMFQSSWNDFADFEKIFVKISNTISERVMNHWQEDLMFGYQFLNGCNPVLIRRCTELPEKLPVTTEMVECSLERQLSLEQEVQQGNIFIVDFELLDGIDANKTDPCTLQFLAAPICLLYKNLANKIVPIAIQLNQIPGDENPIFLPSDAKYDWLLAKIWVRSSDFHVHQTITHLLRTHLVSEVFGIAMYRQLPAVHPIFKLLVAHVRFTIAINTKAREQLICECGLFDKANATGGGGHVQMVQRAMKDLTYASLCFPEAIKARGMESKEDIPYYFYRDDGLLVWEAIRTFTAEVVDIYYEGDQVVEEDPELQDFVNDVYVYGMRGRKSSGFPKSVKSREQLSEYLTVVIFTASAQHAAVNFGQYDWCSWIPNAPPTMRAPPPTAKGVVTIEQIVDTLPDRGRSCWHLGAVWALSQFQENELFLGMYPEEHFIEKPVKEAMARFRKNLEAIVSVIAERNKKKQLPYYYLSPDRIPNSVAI

[6] = Cytotoxicity against human U937 cells at 30 uM after 48 hrs by LDH assay; assay type: cell-based; settings: u-937, 48 h
[7] = target: T2, Polyunsaturated fatty acid 5-lipoxygenase (Homo sapiens) (UniProt P09917); settings: 0.01 to 1 uM
T2 sequence (whole entry): T1 sequence (P09917 whole entry)
Description: Inhibition of 5-LO in human PMNL using arachidonic acid as substrate assessed as product formation at 0.01 to 1 uM incubated for 15 mins prior to substrate addition measured after 10 mins by HPLC analysis in presence of 10% fetal calf serum

[8] = target: T1, Polyunsaturated fatty acid 5-lipoxygenase; test: Inhibition of 5-LO in human PMNL S100 extract using arachidonic acid as substrate incubated for 15 mins prior to substrate addition measured after 10 mins by HPLC analysis
[9] = Cytotoxicity against human U937 cells assessed as cell viability after 48 hrs by WST-1 assay; assay type: cell-based; settings: U-937, 48 h
[10] = target: T2, Polyunsaturated fatty acid 5-lipoxygenase (Homo sapiens); test: Inhibition of 5-LO in human PMNL using arachidonic acid as substrate assessed as product formation at 1 to 10 uM incubated for 15 mins prior to substrate addition measured after 10 mins by HPLC analysis in presence of 10% fetal calf serum
[11] = target: T3, Polyunsaturated fatty acid lipoxygenase ALOX12 (Homo sapiens, UniProt P18054); test: Inhibition of 12-LO (unknown origin)
T3 sequence (P18054 whole entry): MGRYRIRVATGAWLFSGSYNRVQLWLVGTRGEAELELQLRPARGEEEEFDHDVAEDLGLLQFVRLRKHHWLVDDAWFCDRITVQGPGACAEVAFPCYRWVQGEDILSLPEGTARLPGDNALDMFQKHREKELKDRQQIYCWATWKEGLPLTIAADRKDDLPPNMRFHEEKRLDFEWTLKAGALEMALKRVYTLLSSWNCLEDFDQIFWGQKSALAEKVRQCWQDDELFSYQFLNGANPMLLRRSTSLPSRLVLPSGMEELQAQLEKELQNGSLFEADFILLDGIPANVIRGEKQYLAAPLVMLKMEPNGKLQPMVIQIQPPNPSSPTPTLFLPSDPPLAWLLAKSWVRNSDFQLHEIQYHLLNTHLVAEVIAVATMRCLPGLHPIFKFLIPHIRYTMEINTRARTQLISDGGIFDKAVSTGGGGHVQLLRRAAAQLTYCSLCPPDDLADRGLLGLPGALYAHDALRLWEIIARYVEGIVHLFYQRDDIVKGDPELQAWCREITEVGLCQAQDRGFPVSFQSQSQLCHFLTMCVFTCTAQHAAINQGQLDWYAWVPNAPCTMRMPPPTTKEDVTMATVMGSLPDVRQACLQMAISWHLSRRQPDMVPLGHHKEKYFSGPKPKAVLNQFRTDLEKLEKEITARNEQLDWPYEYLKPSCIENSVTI

[12] = target: T4, Polyunsaturated fatty acid lipoxygenase ALOX15 (Homo sapiens, UniProt P16050); test: Inhibition of 15-LO1 (unknown origin)
T4 sequence (P16050 whole entry): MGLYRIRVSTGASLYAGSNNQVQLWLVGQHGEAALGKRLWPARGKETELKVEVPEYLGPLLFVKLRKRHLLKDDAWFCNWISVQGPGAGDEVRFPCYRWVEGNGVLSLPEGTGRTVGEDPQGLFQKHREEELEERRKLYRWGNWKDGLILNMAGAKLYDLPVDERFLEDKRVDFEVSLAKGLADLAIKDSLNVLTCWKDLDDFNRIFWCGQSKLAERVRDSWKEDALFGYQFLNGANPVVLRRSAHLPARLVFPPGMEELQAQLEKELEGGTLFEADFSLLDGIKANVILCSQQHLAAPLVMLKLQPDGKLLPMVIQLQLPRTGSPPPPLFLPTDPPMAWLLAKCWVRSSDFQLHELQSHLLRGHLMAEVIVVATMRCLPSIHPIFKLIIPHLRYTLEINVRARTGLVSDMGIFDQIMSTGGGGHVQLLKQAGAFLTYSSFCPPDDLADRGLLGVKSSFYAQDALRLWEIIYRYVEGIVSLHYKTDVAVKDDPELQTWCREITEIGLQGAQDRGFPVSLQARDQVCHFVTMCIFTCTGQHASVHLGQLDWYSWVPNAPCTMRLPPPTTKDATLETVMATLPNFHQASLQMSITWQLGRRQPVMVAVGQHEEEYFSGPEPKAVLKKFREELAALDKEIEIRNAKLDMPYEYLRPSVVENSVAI

[13] = target: T2, Polyunsaturated fatty acid 5-lipoxygenase (Homo sapiens); test: Reversible inhibition of 5-LO in human PMNL using arachidonic acid as substrate assessed as product formation incubated for 15 mins followed by compound washout measured after 10 mins by HPLC analysis

Row | Structure (SMILES) | solubility [3] [mM] | solubility [4] [mM] | IC50 [5] [nM] | IC50 [8] [nM] | further results
1 | CC(c1cc2ccccc2s1)N(O)C(N)=O (stereo unspecified) [ZILEUTON] | – | – | – | – | Activity [1]: 1.5%; viability at 48 h, 100 µM [2]: 86.5%
2 | COc1ccc(-c2sc(-c3ccc(Cl)cc3)nc2O)cc1 | 0.05 (≈ 15.9 µg/mL) | 50 (≈ 15900 µg/mL) | 10 | 50 | Activity [6]: Non-toxic; inhibition [7]: Active; IC50 [9]: > 30000 nM
3 | CCCCCC(O)c1cccc(OCc2ccc3ccccc3n2)c1 (stereo unspecified) [REV-5901] | – | – | – | – | Activity [1]: 22.5%; viability at 48 h, 100 µM [2]: < 1%
4 | COc1ccc(Cc2sc(-c3ccc(Cl)cc3)nc2O)cc1 | 0.08 (≈ 26.5 µg/mL) | 100 (≈ 33200 µg/mL) | 140 | 30 | inhibition [10]: inactive; Activity [6]: 4.09%; IC50 [11]: > 10000 nM; IC50 [12]: > 10000 nM; IC50 [9]: > 30000 nM
5 | COc1ccc(Cc2sc(-c3ccc(C)cc3)nc2O)cc1 | 0.08 (≈ 24.9 µg/mL) | 100 (≈ 31100 µg/mL) | 720 | 200 | –
6 | Cc1ccc(C2=NC(=O)/C(=C/c3ccc(OCCN4CCOCC4)cc3)S2)cc1 | 0.03 (≈ 12.3 µg/mL) | 10 (≈ 4090 µg/mL) | 2330 | 520 | –
7 | Cc1ccc(C2=NC(=O)/C(=C/c3cccc(S(N)(=O)=O)c3)S2)cc1 | 0.08 (≈ 28.7 µg/mL) | 30 (≈ 10800 µg/mL) | 1440 | 250 | –
8 | Cc1ccc(C2=NC(=O)/C(=C/c3ccc(OCC(=O)N4CCOCC4)cc3)S2)cc1 | 0.05 (≈ 21.1 µg/mL) | 20 (≈ 8450 µg/mL) | 1660 | 730 | –
9 | Cc1ccc(C2=NC(=O)/C(=C/c3ccc(N4CCOCC4)cc3)S2)cc1 | 0.01 (≈ 3.64 µg/mL) | 10 (≈ 3640 µg/mL) | 3650 | 1070 | –
10 | Cc1ccc(C2=NC(=O)/C(=C/c3ccc(O)cc3)S2)cc1 | 0.03 (≈ 8.86 µg/mL) | 50 (≈ 14800 µg/mL) | 1130 | 330 | –
11 | COc1ccc(/C=C2\SC(c3ccc(C)cc3)=NC2=O)cc1 | 0.03 (≈ 9.28 µg/mL) | 10 (≈ 3090 µg/mL) | – | – | inhibition [10]: inactive; inhibition [13]: Active
12 | COc1ccc(/C=C2/SC(c3ccc(Cl)cc3)=NC2=O)cc1 | 0.03 (≈ 9.89 µg/mL) | 15 (≈ 4950 µg/mL) | 280 | 80 | –
13 | COc1ccc(/C=C2/SC(c3cccc4ccccc34)=NC2=O)cc1 | 0.03 (≈ 10.4 µg/mL) | 10 (≈ 3450 µg/mL) | 120 | 80 | –
